From article PMC7845594, “Novel Immune Modulators Enhance Caenorhabditis elegans Resistance to Multiple Pathogens” (mSphere, 2021)

How the values were obtained:
[1] = system: P. aeruginosa strain PA14; test: MIC assay (bacterial growth, no worms); type: cell-based, Pseudomonas aeruginosa
Protocol: For the first round of characterization, 69 novel small molecules previously selected on the basis of their ability to improve C. elegans survival during exposure to P. aeruginosa in liquid ([14]) were tested for the ability to interfere with bacterial growth. MICs were determined for each compound by growing P. aeruginosa strain PA14 in static culture in 384-well plates with serial 2-fold dilutions of compounds. No worms were used in these assays. Next, effective rescue concentrations (EC; defined as the minimum concentration that results in statistically significant survival, compared to dimethyl sulfoxide [DMSO]) ([15], [18]) were determined for each compound using the standard P. aeruginosa liquid killing assay. Sterile glp-4(bn2) worms were used in all liquid-based assays to limit artifacts (i.e., unlaid eggs will hatch and cause matricide).
Plates were allowed to grow for 24 h at 37°C without shaking. Growth was scored visually on the basis of turbidity. At least three biological replicates were performed.

[2] = system: C. elegans transcriptome; test: Transcriptome profiling (Affymetrix microarrays), differentially expressed genes; type: in vivo, Caenorhabditis elegans; details: for Fold Change: downregulated genes
Protocol: To gain additional insight into the effect of LK molecules on C. elegans, young-adult, wild-type worms were treated with each drug at 100 µM for 8 h in the absence of pathogen. RNA was collected, and transcriptome profiling was performed.
Data were determined using Affymetrix microarrays, as described in Materials and Methods. Download Table S3, XLSX file, 0.07 MB.
Transcriptome profiling was performed on ∼6,000 wild-type, young adult worms incubated with either LK molecules or DMSO for 8 h. RNA isolation was performed using TRIzol extraction, followed by cleanup using RNeasy columns according to the manufacturer’s protocol. Each condition was analyzed in triplicate. Microarray data have been deposited in the GEO database, accession number GSE137516. […] Clustering and generation of the heat map was performed using Cluster 3.0 ([98]) and Treeview ([99]), respectively. Fold change of genes were normalized to average fold change of that gene over all clustered conditions. Genes and conditions were clustered using Euclidean distance and average linkages. […] Microarray data for non-LK molecules were collected from GEO omnibus. WormEXP was used as a secondary method for confirming statistical significance of potential pathways stimulated by each of the LK molecules ([100]). Gene ontologies were generated using DAVID ([101], [102]).

[3] = Downregulated genes, Affy_ID 171867_x_at
[4] = Downregulated genes, Affy_ID 176276_s_at

CCN(CC)/N=N/c1ccc(C(=O)O)cc1 [LK35]
MIC ([1]; Pseudomonas aeruginosa, P. aeruginosa PA14, LB media, static culture, no worms, read-out: MIC): > 908 µM | MIC / EC ([1]; ratio of MIC to EC, P. aeruginosa PA14): > 52.4 | Fold Change ([2]; Affy_ID 171811_s_at, listed under genes K01D12.7 (LK34, LK38), C57047 (LK35), K01D12.15 (LK38)): 0.292 | Fold Change ([2]; Affy_ID 171867_x_at, listed under genes C09B9.6, F36H12.7, K07F5.1, R05F9.13, R13H9.2, R13H9.4, T13F2.10, T13F2.11, Y59E9AR.1, Y59E9AR.7, ZK354.1): 0.2025 | Fold Change ([2]; Affy_ID 171880_x_at, listed under genes C24D10.7 and C24D10.8): 0.4703 | Fold Change, gene Y59E9AR.1 [2, 3]: 0.2025 | Fold Change, gene Y59E9AR.7 [2, 3]: 0.2025 | Fold Change, gene ZK354.1 [2, 3]: 0.2025 | Fold Change, gene ZK354.10 [2, 3]: 0.2025 | Fold Change, gene ZK354.11 [2, 3]: 0.2025 | Fold Change, gene ZK354.4 [2, 3]: 0.2025 | Fold Change, gene ZK354.5 [2, 3]: 0.2025 | Fold Change, gene ZK131.11 ([2]; Downregulated genes, Affy_ID 171916_s_at): 0.3792 | Fold Change, gene Y59H11AM.1 ([2]; Downregulated genes, Affy_ID 172113_x_at): 0.2252 | Fold Change, gene Y71H2AL.C ([2]; Downregulated genes, Affy_ID 172177_x_at): 0.4472 | Fold Change, gene ZK525.1 ([2]; Downregulated genes, Affy_ID 172214_x_at): 0.281 | Fold Change, gene T23B7.1 ([2]; Downregulated genes, Affy_ID 172486_x_at): 0.3276 | Fold Change, gene Y105C5A.13 ([2]; Downregulated genes, Affy_ID 172627_x_at): 0.07461 | Fold Change, gene T28H11.6 ([2]; Downregulated genes, Affy_ID 172704_x_at): 0.2084 | Fold Change, gene ZK1248.4 ([2]; Downregulated genes, Affy_ID 172734_x_at): 0.2437 | Fold Change, gene ZK546.3 ([2]; Downregulated genes, Affy_ID 172798_x_at): 0.1152 | Fold Change, gene ZK131.7 ([2]; Downregulated genes, Affy_ID 172871_x_at): 0.3252 | Fold Change, gene ZK1248.6 ([2]; Downregulated genes, Affy_ID 172887_x_at): 0.1434 | Fold Change, gene ZK546.6 ([2]; Downregulated genes, Affy_ID 172900_x_at): 0.1383 | Fold Change, gene ZK1251.6 ([2]; Downregulated genes, Affy_ID 172938_x_at): 0.1992 | Fold Change, gene Y43F8B.2 ([2]; Downregulated genes, Affy_ID 173326_s_at): 0.3741 | Fold Change, gene T27E4.7 ([2]; Downregulated genes, Affy_ID 173756_at): 0.207 | Fold Change, gene Y54G2A.7 ([2]; Downregulated genes, Affy_ID 174102_at): 0.2822 | Fold Change, gene ZK809.8 ([2]; Downregulated genes, Affy_ID 175557_at): 0.3895 | Fold Change, gene ZK112.1 ([2]; Downregulated genes, Affy_ID 175995_at): 0.2683 | Fold Change, gene Y119D3B.13 ([2]; Downregulated genes, Affy_ID 176131_at): 0.2184 | Fold Change, gene Y69A2AR.12 [2, 4]: 0.2706 | Fold Change, gene Y69A2AR.25 [2, 4]: 0.2706 | Fold Change, gene Y71H2AM.13 ([2]; Downregulated genes, Affy_ID 176285_s_at): 0.4282 | Fold Change, gene Y71G12B.4 ([2]; Downregulated genes, Affy_ID 176544_at): 0.3363 | Fold Change, gene Y54G2A.14 ([2]; Downregulated genes, Affy_ID 177004_s_at): 0.3979 | Fold Change, gene Y73B6BL.24 ([2]; Downregulated genes, Affy_ID 177183_s_at): 0.3786 | Fold Change, gene Y71H2AL.1 ([2]; Downregulated genes, Affy_ID 177190_at): 0.2701 | Fold Change, gene ZK669.2 ([2]; Downregulated genes, Affy_ID 179491_at): 0.1961 | Fold Change, gene ZK550.2 ([2]; Downregulated genes, Affy_ID 179513_at): 0.2553 | Fold Change, gene T23F4.3 ([2]; Downregulated genes, Affy_ID 179815_at): 0.0609 | Fold Change, gene Y51H4A.7 ([2]; Downregulated genes, Affy_ID 180145_s_at): 0.2617 | Fold Change, gene T23F4.1 ([2]; Downregulated genes, Affy_ID 180223_s_at): 0.03953 | Fold Change, gene W04B5.2 ([2]; Downregulated genes, Affy_ID 180561_at): 0.4474 | Fold Change, gene ZK484.5 ([2]; Downregulated genes, Affy_ID 182193_at): 0.3211 | Fold Change, gene Y44A6C.1 ([2]; Downregulated genes, Affy_ID 182843_at): 0.3152 | Fold Change, gene Y45F10A.5 ([2]; Downregulated genes, Affy_ID 184558_at): 0.1919 | Fold Change, gene T23B12.8 ([2]; Downregulated genes, Affy_ID 184855_at): 0.1557 | Fold Change, gene Y105C5B.5 ([2]; Downregulated genes, Affy_ID 185106_at): 0.254 | Fold Change, gene W01A11.6 ([2]; Downregulated genes, Affy_ID 186120_at): 0.4275 | Fold Change, gene T27A10.7 ([2]; Downregulated genes, Affy_ID 186153_s_at): 0.3382 | Fold Change, gene Y18D10A.23 ([2]; Downregulated genes, Affy_ID 186886_s_at): 0.3476 | Fold Change, gene Y105C5A.24 ([2]; Downregulated genes, Affy_ID 187121_at): 0.3662 | Fold Change, gene ZC416.6 ([2]; Downregulated genes, Affy_ID 188470_s_at): 0.2458 | Fold Change, gene T25C12.3 ([2]; Downregulated genes, Affy_ID 188823_s_at): 0.2936 | Fold Change, gene ZK593.1 ([2]; Downregulated genes, Affy_ID 189095_at): 0.3436 | Fold Change, gene ZK484.2 ([2]; Downregulated genes, Affy_ID 189882_at): 0.286 | Fold Change, gene ZK131.4 ([2]; Downregulated genes, Affy_ID 190307_s_at): 0.2791 | Fold Change, gene Y40D12A.2 ([2]; Downregulated genes, Affy_ID 191017_at): 0.3228 | Fold Change, gene W07B8.5 ([2]; Downregulated genes, Affy_ID 191887_s_at): 0.2934 | Fold Change, gene Y51A2D.13 ([2]; Downregulated genes, Affy_ID 192992_at): 0.2251 | Fold Change, gene Y69E1A.5 ([2]; Downregulated genes, Affy_ID 193144_at): 0.316 | Fold Change, gene Y111B2A.13 ([2]; Downregulated genes, Affy_ID 193715_at): 0.4867 | Fold Change, gene Y48A6B.7 ([2]; Downregulated genes, Affy_ID 193926_at): 0.205 | Fold Change, gene ZK666.7 ([2]; Downregulated genes, Affy_ID 194066_s_at): 0.1175 | Fold Change ([2]; Gene AC3.7, Affy_ID 190879_at): 0.1754 | Fold Change ([2]; Gene B0035.13, Affy_ID 188123_at): 0.2664 | Fold Change ([2]; Gene C02F5.7, Affy_ID 191772_at): 0.3854 | Fold Change ([2]; Gene C04G2.4, Affy_ID 172853_x_at): 0.1724 | Fold Change ([2]; Gene C05C10.4, Affy_ID 189921_at): 0.2517 | Fold Change ([2]; Gene C05C12.3, Affy_ID 183355_s_at): 0.2041 | Fold Change ([2]; Gene C06A12.3, Affy_ID 183322_at): 0.4777 | Fold Change ([2]; Gene C06G3.5, Affy_ID 189941_at): 0.4389 | Fold Change ([2]; Gene C08E3.1, Affy_ID 172309_x_at): 0.09218 | Fold Change ([2]; Gene C08E3.13, Affy_ID 172565_x_at): 0.08084 | Fold Change ([2]; Gene C08F11.13, Affy_ID 175229_at): 0.2613 | Fold Change ([2]; Gene C14C6.2, Affy_ID 183566_at): 0.2902 | Fold Change ([2]; Gene C17B7.2, Affy_ID 181325_s_at): 0.2818 | Fold Change ([2]; Gene C18G1.2, Affy_ID 191147_at): 0.4346 | Fold Change ([2]; Gene C18H9.6, Affy_ID 187412_at): 0.3068 | Fold Change ([2]; Gene C24A3.6, Affy_ID 175541_at): 0.3015
